In ChEMBL document CHEMBL1130644, “Synthesis of C-ring aromatic taxoids and evaluation of their multi-drug resistance reversing activity” (1998):

Columns and labels:
Type in all cases: functional, Homo sapiens
[1] = Compound was evaluated for enhancing effect on vincristine accumulation in ovarian MDR cancer cells (2780AD) at concentration of 10 ug/mL.
[2] = Compound was evaluated for enhancing effect on vincristine accumulation in ovarian MDR cancer cells (2780AD) at concentration of 1.0 ug/mL.
[3] = 62 Compound was evaluated for enhancing effect on vincristine accumulation in ovarian MDR cancer cells (2780AD) at concentration of 1.0 ug/mL.

COc1cccc2c1[C@H](O)[C@]1(O)CC(=O)C(C)=C([C@@H](Sc3ccccc3)[C@@H]2OCCO)C1(C)C
Activity [1]: 171% | Activity [2]: 112%

COc1cccc2c1[C@H](OCc1ccccc1)[C@]1(O)CC(=O)C(C)=C([C@@H](Sc3ccccc3)[C@@H]2OCCOCc2ccccc2)C1(C)C
Activity [1]: 211% | Activity [2]: 106%

COc1cccc2c1[C@H](O)[C@]1(O)CC(=O)C(C)=C(C[C@@H]2OCCO)C1(C)C
Activity [1]: 124% | Activity [2]: 111%

CC1=C2[C@@H](Sc3ccccc3)[C@H](OCCOCc3ccccc3)c3cccc(O)c3[C@H](OCc3ccccc3)[C@](O)(CC1=O)C2(C)C
Activity [1]: 142% | Activity [2]: 106%

COc1cccc2c1[C@H](O)[C@]1(O)CC(=O)C(C)=C([C@@H](Sc3ccccc3)[C@@H]2OCCBr)C1(C)C
Activity [1]: 166% | Activity [2]: 93%

COc1cccc2c1[C@H](O)[C@]1(O)CC(O)C(C)=C([C@@H](Sc3ccccc3)[C@@H]2OCCO)C1(C)C (stereo partly specified)
Activity [3]: 109% | Activity [1]: 144%

CC1=C2[C@@H](Sc3ccccc3)[C@H](OCCO)c3cccc(O)c3[C@H](OCc3ccccc3)[C@](O)(CC1=O)C2(C)C
Activity [1]: 569% | Activity [2]: 238%

COc1cccc2c1[C@H](O)[C@]1(O)CC(=O)C(C)=C([C@@H](Sc3ccccc3)[C@@H]2OCCOCc2ccccc2)C1(C)C
Activity [1]: 256% | Activity [2]: 140%
